Test results from ChEMBL document CHEMBL1201862, “PubChem BioAssay data set” (2004).
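Where inhibition never reached the appropriate level, the endpoint shown equals the highest concentration tested. Otherwise, values were interpolated linearly from a five-concentration, 48-hour dose response in 96-well plates. Abbreviation: GI50, concentration required for 50% inhibition of growth.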 The source made the active and inactive calls. No stated cut-off is given here; in the data, active = GI50 up to about 1.1 µM and inactive = higher.

Experiments:
Test in all cases: inhibition of tumour cell growth, NCI panel, 48 h
[1] = tested on: 786-0
[2] = tested on: A498
[3] = tested on: A549
[4] = tested on: ACHN
[5] = tested on: BT-549
[6] = tested on: CAKI-1
[7] = tested on: CCRF-CEM
[8] = tested on: COLO 205
[9] = tested on: DU-145
[10] = tested on: EKVX
[11] = tested on: HCT-116
[12] = tested on: HCT-15
[13] = tested on: HL-60
[14] = tested on: HOP-62
[15] = tested on: HOP-92
[16] = tested on: HT-29
[17] = tested on: Hs-578T
[18] = tested on: IGROV-1
[19] = tested on: K562
[20] = tested on: KM12
[21] = tested on: LOX IMVI
[22] = tested on: M14
[23] = tested on: MCF7
[24] = tested on: MDA-MB-231
[25] = tested on: MDA-MB-435
[26] = tested on: MDA-N
[27] = tested on: MOLT-4
[28] = tested on: Malme-3M
[29] = tested on: NCI-H226
[30] = tested on: NCI-H23
[31] = tested on: NCI-H460
[32] = tested on: NCI-H522
[33] = tested on: NCI/ADR-RES
[34] = tested on: OVCAR-3
[35] = tested on: OVCAR-4
[36] = tested on: OVCAR-5
[37] = tested on: OVCAR-8
[38] = tested on: PC-3
[39] = tested on: RPMI-8226
[40] = tested on: RXF 393
[41] = tested on: SF-268
[42] = tested on: SF-295
[43] = tested on: SF-539
[44] = tested on: SK-MEL-28
[45] = tested on: SK-MEL-2
[46] = tested on: SK-MEL-5
[47] = tested on: SK-OV-3
[48] = tested on: SN12C
[49] = tested on: SNB-19
[50] = tested on: SNB-75
[51] = tested on: SR
[52] = tested on: SW-620
[53] = tested on: T47D
[54] = tested on: TK-10
[55] = tested on: U-251
[56] = tested on: UACC-257
[57] = tested on: UACC-62
[58] = tested on: UO-31
[59] = tested on: HCC 2998

## CC(Br)C(=O)Nc1ccc(C(=O)O)c(O)c1 (stereo not drawn)
[1]
  GI50: 37.6 µM (inactive)
[2]
  GI50: > 100 µM (inactive)
[3]
  GI50: > 100 µM (inactive)
[4]
  GI50: > 100 µM (inactive)
[5]
  GI50: 37.2 µM (inactive)
[6]
  GI50: > 100 µM (inactive)
[7]
  GI50: 15.8 µM (inactive)
[8]
  GI50: > 100 µM (inactive)
[9]
  GI50: > 100 µM (inactive)
[10]
  GI50: > 100 µM (inactive)
[11]
  GI50: 50.7 µM (inactive)
[12]
  GI50: > 100 µM
[13]
  GI50: 26.6 µM (inactive)
[14]
  GI50: 34.8 µM (inactive)
[15]
  GI50: 65.6 µM (inactive)
[16]
  GI50: 62.4 µM (inactive)
[17]
  GI50: 33.4 µM (inactive)
[18]
  GI50: > 100 µM (inactive)
[19]
  GI50: 49.8 µM (inactive)
[20]
  GI50: 70.8 µM (inactive)
[21]
  GI50: 34.5 µM (inactive)
[22]
  GI50: 33.4 µM (inactive)
[23]
  GI50: 83.4 µM (inactive)
[24]
  GI50: 68.2 µM (inactive)
[25]
  GI50: 34.4 µM (inactive)
[26]
  GI50: 34.6 µM (inactive)
[27]
  GI50: 36.1 µM (inactive)
[28]
  GI50: 20.7 µM (inactive)
[29]
  GI50: 93.5 µM (inactive)
[30]
  GI50: 27.4 µM (inactive)
[31]
  GI50: > 100 µM (inactive)
[32]
  GI50: 20 µM (inactive)
[33]
  GI50: 49.5 µM (inactive)
[34]
  GI50: 29.2 µM (inactive)
[35]
  GI50: 45.4 µM (inactive)
[36]
  GI50: > 100 µM (inactive)
[37]
  GI50: 52.8 µM (inactive)
[38]
  GI50: 34 µM (inactive)
[39]
  GI50: > 100 µM (inactive)
[40]
  GI50: 53.6 µM (inactive)
[41]
  GI50: 36.3 µM (inactive)
[42]
  GI50: > 100 µM (inactive)
[43]
  GI50: 38.6 µM (inactive)
[44]
  GI50: 47.4 µM (inactive)
[45]
  GI50: 32.4 µM (inactive)
[46]
  GI50: 62.5 µM (inactive)
[47]
  GI50: 38.5 µM (inactive)
[48]
  GI50: 24.7 µM (inactive)
[49]
  GI50: 37.2 µM (inactive)
[50]
  GI50: 43.5 µM (inactive)
[51]
  GI50: 32.9 µM (inactive)
[52]
  GI50: 60.8 µM (inactive)
[53]
  GI50: > 100 µM (inactive)
[54]
  GI50: 52.4 µM (inactive)
[55]
  GI50: 23.2 µM (inactive)
[56]
  GI50: 42.4 µM (inactive)
[57]
  GI50: 33.6 µM (inactive)
[58]
  GI50: > 100 µM (inactive)

## CN(C(=O)C12C3(C(=O)O)C4C5(C(=O)O)C3C1(C(=O)O)C5C42C(=O)O)C(C)(C)C (stereo not drawn)
[1]
  GI50: > 100 µM (inactive)
[2]
  GI50: > 100 µM (inactive)
[3]
  GI50: > 100 µM (inactive)
[4]
  GI50: > 100 µM (inactive)
[5]
  GI50: > 100 µM (inactive)
[6]
  GI50: > 100 µM (inactive)
[7]
  GI50: > 100 µM (inactive)
[8]
  GI50: > 100 µM (inactive)
[9]
  GI50: > 100 µM (inactive)
[10]
  GI50: > 100 µM (inactive)
[59]
  GI50: > 100 µM (inactive)
[11]
  GI50: > 100 µM (inactive)
[12]
  GI50: > 100 µM
[13]
  GI50: > 100 µM (inactive)
[14]
  GI50: > 100 µM (inactive)
[15]
  GI50: > 100 µM (inactive)
[16]
  GI50: > 100 µM (inactive)
[17]
  GI50: > 100 µM (inactive)
[18]
  GI50: > 100 µM (inactive)
[19]
  GI50: > 100 µM (inactive)
[20]
  GI50: > 100 µM (inactive)
[21]
  GI50: > 100 µM (inactive)
[22]
  GI50: > 100 µM (inactive)
[23]
  GI50: > 100 µM (inactive)
[24]
  GI50: > 100 µM (inactive)
[25]
  GI50: > 100 µM (inactive)
[26]
  GI50: > 100 µM (inactive)
[27]
  GI50: > 100 µM (inactive)
[30]
  GI50: > 100 µM (inactive)
[31]
  GI50: > 100 µM (inactive)
[32]
  GI50: > 100 µM (inactive)
[33]
  GI50: > 100 µM (inactive)
[34]
  GI50: > 100 µM (inactive)
[35]
  GI50: > 100 µM (inactive)
[36]
  GI50: > 100 µM (inactive)
[37]
  GI50: > 100 µM (inactive)
[38]
  GI50: > 100 µM (inactive)
[40]
  GI50: > 100 µM (inactive)
[41]
  GI50: > 100 µM (inactive)
[42]
  GI50: > 100 µM (inactive)
[43]
  GI50: > 100 µM (inactive)
[44]
  GI50: > 100 µM (inactive)
[45]
  GI50: > 100 µM (inactive)
[46]
  GI50: > 100 µM (inactive)
[48]
  GI50: > 100 µM (inactive)
[49]
  GI50: > 100 µM (inactive)
[50]
  GI50: 0.442 µM (active)
[51]
  GI50: > 100 µM (inactive)
[52]
  GI50: > 100 µM (inactive)
[53]
  GI50: > 100 µM (inactive)
[54]
  GI50: > 100 µM (inactive)
[55]
  GI50: > 100 µM (inactive)
[56]
  GI50: > 100 µM (inactive)
[57]
  GI50: > 100 µM (inactive)
[58]
  GI50: > 100 µM (inactive)
